According to patent publication US20240209001A1, “HETEROCYCLIC DERIVATIVES AS JANUS KINASE INHIBITORS” (CHIESI FARMACEUTICI S.P. A., priority 2021, published 2024):

Assays:
TYK2 = TYK2 (Homo sapiens (Human), UniProt P29597); assay: Biochemical potency on Tyk2, TR-FRET LANCE Ultra kinase assay (compounds 1-92); conditions: ATP at Km, read-out: Tyk2 inhibitory activity (pIC50 class) (converted)
Method: (§1) Biochemical Potency on JAK1, JAK2, JAK3 and Tyk2 Assay Principle The objective of this study was to assess the capability of compounds to inhibit all 4 JAK isoforms activity in a cell-free environment. Assay for JAK 1, JAK 2, JAK 3 and TYK2 were performed by Time-resolved fluorescence resonance energy transfer (TR-FRET) technology. It consists in the interaction of two labelled binding partners detected by the energy transfer from an excited donor to an acceptor dye and measurement of light emission by the acceptor dye. LANCE Ultra kinase assay was used. In presence of JAK 1, JAK 2, JAK 3 and TYK2 kinases and ATP (corresponding to Km), the ULight peptide substrate (LANCE Ulight-JAK-1 ([…]) Peptide, Perkin Elmer, TRF0121) is phosphorylated. It is then captured by Eu-anti-phospho-substrate antibody (LANCE Eu-W1024 Anti-phosphotyrosine (PT66), Perkin Elmer, AD0069), which bring the Eu-chelate donor and ULight acceptor dyes into close proximity. Upon excitation at 320 nm, the Eu-chelate transfers its energy to the ULight dye, resulting in a fluorescent light emission at 665 nm. Compound Testing Serial dilutions of compounds in pure DMSO are prepared from 10 mM DMSO stock solutions. Compounds were tested in 384-well plate for 11 consecutive 5-fold dilutions starting from 20 μM highest concentration (20 μM-[…]). 200 nL of compound were transferred from mother plate to test plate by using Mosquito (TTP labtech). Assay was performed in 384-well Perkin Elmer test plate in 20 μL assay volume (kinase reaction) and 40 μL total volume (stopping reagent and antibody detection reagents). In 10 μL of substrate solution (peptide+ATP) 30/50/20/10 nM of peptide and 20/0.7/0.2/12 μM of ATP were added for JAK 1, JAK 2, JAK 3 and TYK2 respectively. 10 μL of enzyme solution was added to kinase reaction at these concentrations: 0.15/0.083/0.025/0.144 ng/μL of JAK 1, JAK 2, JAK 3 and TYK2 respectively. After shaking and 1.5 h of incubation at r.t., 20 μL of Stop (10 μL EDTA) and Detection mixture (10 μL Europium-anti-phospho antibody, final: 0.5 nM) were added. Reading was performed after 1 h of incubation on a EnVision 2104 reader (Perkin Elmer). Calculation of IC50 data, curves and QC analysis was performed by using Excel tool and GraphPadPrism software, v9. Briefly, individual concentration-effect curves are generated by plotting the logarithm of the tested concentration of tested compounds (X) vs. corresponding percent inhibition values (Y) using least squares (ordinary) fit. Best fit IC50 values are calculated using Log(inhibitor) vs. normalized response-Variable slope equation, where Y=100/(1+10^((Log IC50-X)*HillSlope)). QC criteria parameters (Z', S:B, R2, HillSlope) were checked for every IC50 curve. Calculation of IC50 data, curves and QC analysis were made using Excel tools and GraphPadPrism software. QC criteria parameters: Z'≥0.5, Hill Slope range 0.5 to 5, S:B>2.

JAK 3 = JAK 3 (Homo sapiens (Human), UniProt P52333); assay: Biochemical potency on JAK3, TR-FRET LANCE Ultra kinase assay (compounds 1-92); conditions: ATP at Km, read-out: JAK3 inhibitory activity (pIC50 class) (converted)
Method: as §1

JAK 1 = JAK 1 (Homo sapiens (Human), UniProt P23458); assay: Biochemical potency on JAK1, TR-FRET LANCE Ultra kinase assay (compounds 1-92); conditions: ATP at Km, read-out: JAK1 inhibitory activity (pIC50 class) (converted)
Method: as §1

JAK 2 = JAK 2 (Homo sapiens (Human), UniProt O60674); assay: Biochemical potency on JAK2, TR-FRET LANCE Ultra kinase assay (compounds 1-92); conditions: ATP at Km, read-out: JAK2 inhibitory activity (pIC50 class) (converted)
Method: as §1

Chain of JAK 2 (O60674 whole entry): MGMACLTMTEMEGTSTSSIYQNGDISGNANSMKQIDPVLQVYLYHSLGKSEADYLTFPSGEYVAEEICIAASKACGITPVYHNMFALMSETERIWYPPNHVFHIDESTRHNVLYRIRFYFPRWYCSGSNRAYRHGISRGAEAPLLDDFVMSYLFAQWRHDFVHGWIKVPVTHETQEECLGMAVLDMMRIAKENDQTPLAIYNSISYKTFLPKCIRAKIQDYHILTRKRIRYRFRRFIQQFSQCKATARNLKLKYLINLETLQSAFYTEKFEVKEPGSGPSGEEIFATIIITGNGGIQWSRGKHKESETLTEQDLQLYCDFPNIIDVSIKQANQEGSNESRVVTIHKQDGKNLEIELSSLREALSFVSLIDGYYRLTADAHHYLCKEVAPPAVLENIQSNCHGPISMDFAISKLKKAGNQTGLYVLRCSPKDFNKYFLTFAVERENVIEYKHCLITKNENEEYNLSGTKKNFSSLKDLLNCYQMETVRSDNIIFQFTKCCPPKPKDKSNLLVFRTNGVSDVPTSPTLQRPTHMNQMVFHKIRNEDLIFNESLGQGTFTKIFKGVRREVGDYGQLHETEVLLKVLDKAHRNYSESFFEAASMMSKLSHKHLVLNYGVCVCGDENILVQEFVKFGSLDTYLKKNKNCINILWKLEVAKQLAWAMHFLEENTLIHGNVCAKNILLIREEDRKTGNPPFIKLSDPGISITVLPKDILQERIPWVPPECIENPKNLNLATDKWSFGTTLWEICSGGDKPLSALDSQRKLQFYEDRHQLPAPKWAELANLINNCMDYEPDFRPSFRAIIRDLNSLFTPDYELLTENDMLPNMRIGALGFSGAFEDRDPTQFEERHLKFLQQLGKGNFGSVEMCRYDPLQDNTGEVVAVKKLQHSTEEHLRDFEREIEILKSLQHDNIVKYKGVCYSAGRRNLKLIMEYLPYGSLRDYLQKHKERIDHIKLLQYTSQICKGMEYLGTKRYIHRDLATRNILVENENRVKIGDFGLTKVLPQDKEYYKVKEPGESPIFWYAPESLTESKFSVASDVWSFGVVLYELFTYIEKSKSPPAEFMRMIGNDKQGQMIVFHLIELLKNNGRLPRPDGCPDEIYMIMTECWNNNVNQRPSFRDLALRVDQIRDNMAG
Chain of JAK 3 (P52333 whole entry): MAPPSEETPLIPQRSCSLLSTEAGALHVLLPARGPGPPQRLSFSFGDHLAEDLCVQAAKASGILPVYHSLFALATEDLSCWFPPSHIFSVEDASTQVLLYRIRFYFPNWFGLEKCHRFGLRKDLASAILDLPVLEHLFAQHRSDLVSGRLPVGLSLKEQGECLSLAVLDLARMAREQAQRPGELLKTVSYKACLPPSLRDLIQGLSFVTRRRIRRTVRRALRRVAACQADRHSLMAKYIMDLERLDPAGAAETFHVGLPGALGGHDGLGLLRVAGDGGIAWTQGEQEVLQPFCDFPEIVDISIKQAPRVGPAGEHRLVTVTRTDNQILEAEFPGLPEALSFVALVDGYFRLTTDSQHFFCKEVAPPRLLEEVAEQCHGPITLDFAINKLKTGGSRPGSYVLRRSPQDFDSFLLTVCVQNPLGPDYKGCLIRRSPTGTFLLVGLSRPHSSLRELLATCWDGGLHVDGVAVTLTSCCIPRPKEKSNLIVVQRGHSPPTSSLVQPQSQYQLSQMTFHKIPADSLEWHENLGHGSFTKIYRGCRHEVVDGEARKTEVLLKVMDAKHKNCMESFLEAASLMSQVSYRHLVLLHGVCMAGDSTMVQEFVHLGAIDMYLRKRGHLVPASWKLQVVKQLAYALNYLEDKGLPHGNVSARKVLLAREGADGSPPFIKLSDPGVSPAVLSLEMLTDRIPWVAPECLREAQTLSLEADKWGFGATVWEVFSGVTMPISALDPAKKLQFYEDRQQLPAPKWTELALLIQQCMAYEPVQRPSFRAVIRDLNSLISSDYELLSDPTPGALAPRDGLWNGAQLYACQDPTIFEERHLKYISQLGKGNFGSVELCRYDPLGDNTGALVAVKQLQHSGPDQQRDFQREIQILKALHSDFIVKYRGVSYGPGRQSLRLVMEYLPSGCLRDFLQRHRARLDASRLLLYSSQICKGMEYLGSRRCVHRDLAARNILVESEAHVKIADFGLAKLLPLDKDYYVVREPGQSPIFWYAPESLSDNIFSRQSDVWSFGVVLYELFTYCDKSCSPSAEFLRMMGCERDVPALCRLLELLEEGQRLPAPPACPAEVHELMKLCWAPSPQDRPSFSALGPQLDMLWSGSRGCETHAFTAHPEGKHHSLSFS
Chain of TYK2 (P29597 whole entry, canonical isoform): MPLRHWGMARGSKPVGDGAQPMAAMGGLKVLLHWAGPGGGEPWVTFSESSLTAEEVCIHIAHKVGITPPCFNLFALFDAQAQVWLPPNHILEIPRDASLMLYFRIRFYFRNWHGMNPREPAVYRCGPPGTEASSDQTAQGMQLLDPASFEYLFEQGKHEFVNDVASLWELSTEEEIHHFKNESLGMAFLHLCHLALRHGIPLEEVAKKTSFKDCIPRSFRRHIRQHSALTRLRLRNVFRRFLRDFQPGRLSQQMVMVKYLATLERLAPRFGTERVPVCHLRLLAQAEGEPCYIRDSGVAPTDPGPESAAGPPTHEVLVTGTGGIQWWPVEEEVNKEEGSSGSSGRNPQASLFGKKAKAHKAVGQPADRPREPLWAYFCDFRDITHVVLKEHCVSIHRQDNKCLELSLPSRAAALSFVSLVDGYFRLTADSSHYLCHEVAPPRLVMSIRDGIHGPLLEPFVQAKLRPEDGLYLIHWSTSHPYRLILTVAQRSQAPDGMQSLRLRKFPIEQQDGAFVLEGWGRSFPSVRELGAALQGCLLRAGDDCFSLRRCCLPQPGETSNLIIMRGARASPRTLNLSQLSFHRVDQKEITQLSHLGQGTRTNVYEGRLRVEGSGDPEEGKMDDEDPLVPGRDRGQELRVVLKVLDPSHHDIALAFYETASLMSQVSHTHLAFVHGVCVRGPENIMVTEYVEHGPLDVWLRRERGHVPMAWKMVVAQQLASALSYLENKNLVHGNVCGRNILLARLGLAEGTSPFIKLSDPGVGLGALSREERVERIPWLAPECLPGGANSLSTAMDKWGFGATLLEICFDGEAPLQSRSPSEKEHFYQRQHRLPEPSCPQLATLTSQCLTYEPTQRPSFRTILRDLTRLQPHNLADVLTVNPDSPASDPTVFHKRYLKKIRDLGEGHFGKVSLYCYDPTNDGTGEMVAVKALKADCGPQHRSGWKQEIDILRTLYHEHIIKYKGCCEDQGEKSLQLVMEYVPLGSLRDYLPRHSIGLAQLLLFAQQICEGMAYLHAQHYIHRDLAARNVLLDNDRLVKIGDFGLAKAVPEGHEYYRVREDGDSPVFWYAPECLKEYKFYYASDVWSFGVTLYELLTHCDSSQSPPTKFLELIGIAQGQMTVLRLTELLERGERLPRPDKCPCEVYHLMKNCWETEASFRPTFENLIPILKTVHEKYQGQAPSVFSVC
Chain of JAK 1 (P23458 whole entry): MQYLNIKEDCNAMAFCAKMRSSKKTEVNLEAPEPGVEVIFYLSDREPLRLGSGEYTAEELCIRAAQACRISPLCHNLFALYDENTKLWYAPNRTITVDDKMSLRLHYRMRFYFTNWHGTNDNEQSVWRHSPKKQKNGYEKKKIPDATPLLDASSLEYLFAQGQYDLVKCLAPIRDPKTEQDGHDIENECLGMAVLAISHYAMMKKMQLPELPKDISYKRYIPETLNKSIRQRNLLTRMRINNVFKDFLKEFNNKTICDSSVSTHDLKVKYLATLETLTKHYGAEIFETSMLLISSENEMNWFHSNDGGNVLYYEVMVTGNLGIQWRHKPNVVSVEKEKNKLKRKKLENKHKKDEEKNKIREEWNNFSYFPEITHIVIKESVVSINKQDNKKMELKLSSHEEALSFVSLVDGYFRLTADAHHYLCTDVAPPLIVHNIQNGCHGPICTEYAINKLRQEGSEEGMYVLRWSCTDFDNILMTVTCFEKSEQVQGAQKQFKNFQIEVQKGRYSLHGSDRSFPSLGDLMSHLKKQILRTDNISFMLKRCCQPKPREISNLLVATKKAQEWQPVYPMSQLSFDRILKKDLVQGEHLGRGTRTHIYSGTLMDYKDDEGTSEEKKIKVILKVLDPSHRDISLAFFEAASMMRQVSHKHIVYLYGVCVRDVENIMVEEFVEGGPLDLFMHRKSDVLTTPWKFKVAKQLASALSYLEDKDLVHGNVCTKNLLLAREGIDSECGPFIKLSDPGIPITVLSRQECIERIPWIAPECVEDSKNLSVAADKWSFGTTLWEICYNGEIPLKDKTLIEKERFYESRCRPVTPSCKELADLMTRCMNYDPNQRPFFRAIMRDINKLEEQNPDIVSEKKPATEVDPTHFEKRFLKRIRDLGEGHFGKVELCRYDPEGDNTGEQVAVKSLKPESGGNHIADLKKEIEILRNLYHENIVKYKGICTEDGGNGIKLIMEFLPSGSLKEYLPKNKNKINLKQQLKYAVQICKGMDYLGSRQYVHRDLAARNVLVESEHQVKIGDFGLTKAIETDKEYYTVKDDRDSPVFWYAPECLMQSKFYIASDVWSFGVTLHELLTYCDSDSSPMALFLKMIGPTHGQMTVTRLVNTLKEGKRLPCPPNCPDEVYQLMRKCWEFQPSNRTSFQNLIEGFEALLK

| SMILES | IC50 (TYK2) | IC50 (JAK 3) | IC50 (JAK 1) | IC50 (JAK 2) |
| --- | --- | --- | --- | --- |
| CNS(=O)(=O)c1ccc(-n2nc(NCCN3CCOCC3)c3cnc(-c4cnn5cccnc45)cc32)c(OC)c1 [Example 50, 3-methoxy-N-methyl-4-(3-((2-morpholinoethyl)amino)-6-(pyrazolo[1,5-a]pyrimidin-3-yl)-1H-pyrazolo[4,3-c]pyridin-1-yl)benzenesulfonamide] | 5.01 to 50.1 nM | ≤ 5.01 nM | ≤ 5.01 nM | ≤ 5.01 nM |
| COc1cc(NS(=O)(=O)C2CC2)ccc1-n1nc(CC#N)c2cnc(-c3cnn4cccnc34)cc21 [Example 84, N-(4-(3-(cyanomethyl)-6-(pyrazolo[1,5-a]pyrimidin-3-yl)-1H-pyrazolo[4,3-c]pyridin-1-yl)-3-methoxyphenyl)cyclopropanesulfonamide] | 5.01 to 50.1 nM | 5.01 to 50.1 nM | ≤ 5.01 nM | ≤ 5.01 nM |
| O=S(=O)(Nc1ccc(-n2nc(NCCN3CCOCC3)c3cnc(-c4cnn5cccnc45)cc32)c(OC(F)F)c1)C1CC1 [Example 25, N-(3-(difluoromethoxy)-4-(3-((2-morpholinoethyl)amino)-6-(pyrazolo[1,5-a]pyrimidin-3-yl)-1H-pyrazolo[4,3-c]pyridin-1-yl)phenyl)cyclopropanesulfonamide] | > 50.1 nM | ≤ 5.01 nM | 5.01 to 50.1 nM | 5.01 to 50.1 nM |
| COc1cc(NS(=O)(=O)CC(N)=O)ccc1-n1nc(C)c2cnc(-c3cnn4cccnc34)cc21 [Example 14, 2-(N-(3-methoxy-4-(3-methyl-6-(pyrazolo[1,5-a]pyrimidin-3-yl)-1H-pyrazolo[4,3-c]pyridin-1-yl)phenyl)sulfamoyl)acetamide] | 5.01 to 50.1 nM | ≤ 5.01 nM | ≤ 5.01 nM | ≤ 5.01 nM |
| COc1cc(NS(C)(=O)=O)c(F)cc1-n1nc(C)c2cnc(-c3cnn4cccnc34)cc21 [Example 12, N-(2-fluoro-5-methoxy-4-(3-methyl-6-(pyrazolo[1,5-a]pyrimidin-3-yl)-1H-pyrazolo[4,3-c]pyridin-1-yl)phenyl)methanesulfonamide] | > 50.1 nM | 5.01 to 50.1 nM | 5.01 to 50.1 nM | 5.01 to 50.1 nM |
| COc1cc(NS(=O)(=O)C2CCOCC2)ccc1-n1nc(C)c2cnc(-c3cnn4cccnc34)cc21 [Example 3, N-(3-methoxy-4-(3-methyl-6-(pyrazolo[1,5-a]pyrimidin-3-yl)-1H-pyrazolo[4,3-c]pyridin-1-yl)phenyl)tetrahydro-2H-pyran-4-sulfonamide] | > 50.1 nM | 5.01 to 50.1 nM | 5.01 to 50.1 nM | ≤ 5.01 nM |
| COc1cc(NS(C)(=O)=O)ccc1-n1nc(NC(=O)C2CCN(C)C2)c2cnc(-c3cnn4cccnc34)cc21 (racemic) [Example 42, N-(1-(2-methoxy-4-(methylsulfonamido)phenyl)-6-(pyrazolo[1,5-a]pyrimidin-3-yl)-1H-pyrazolo[4,3-c]pyridin-3-yl)-1-methylpyrrolidine-3-carboxamide] | 5.01 to 50.1 nM | 5.01 to 50.1 nM | 5.01 to 50.1 nM | 5.01 to 50.1 nM |
| COc1cc(CNC(C)=O)ccc1-n1nc(C)c2cnc(-c3cnn4cccnc34)cc21 [Example 70, N-(3-methoxy-4-(3-methyl-6-(pyrazolo[1,5-a]pyrimidin-3-yl)-1H-pyrazolo[4,3-c]pyridin-1-yl)benzyl)acetamide] | > 50.1 nM | > 50.1 nM | > 50.1 nM | > 50.1 nM |
| COc1cc(NS(=O)(=O)CC2CC2)ccc1-n1nc(C)c2cnc(-c3cnn4cccnc34)cc21 [Example 5, 1-cyclopropyl-N-(3-methoxy-4-(3-methyl-6-(pyrazolo[1,5-a]pyrimidin-3-yl)-1H-pyrazolo[4,3-c]pyridin-1-yl)phenyl)methanesulfonamide] | 5.01 to 50.1 nM | ≤ 5.01 nM | ≤ 5.01 nM | ≤ 5.01 nM |
| CNCC(=O)Nc1nn(-c2ccc(NS(C)(=O)=O)cc2OC)c2cc(-c3cnn4cccnc34)ncc12 [Example 80, N-(1-(2-methoxy-4-(methylsulfonamido)phenyl)-6-(pyrazolo[1,5-a]pyrimidin-3-yl)-1H-pyrazolo[4,3-c]pyridin-3-yl)-2-(methylamino)acetamide] | 5.01 to 50.1 nM | ≤ 5.01 nM | ≤ 5.01 nM | ≤ 5.01 nM |
| COc1cc(NS(C)(=O)=O)ccc1-n1nc(NCCN2CCCCC2)c2cnc(-c3cnn4cccnc34)cc21 [Example 37, N-(3-methoxy-4-(3-((2-(piperidin-1-yl)ethyl)amino)-6-(pyrazolo[1,5-a]pyrimidin-3-yl)-1H-pyrazolo[4,3-c]pyridin-1-yl)phenyl)methanesulfonamide] | 5.01 to 50.1 nM | ≤ 5.01 nM | ≤ 5.01 nM | ≤ 5.01 nM |
| COc1cc(NS(C)(=O)=O)ccc1-n1nc(NCCN(C)C)c2cnc(-c3cnc4cccnn34)cc21 [Example 77, N-(4-(3-((2-(dimethylamino)ethyl)amino)-6-(imidazo[1,2-b]pyridazin-3-yl)-1H-pyrazolo[4,3-c]pyridin-1-yl)-3-methoxyphenyl)methanesulfonamide] | 5.01 to 50.1 nM | ≤ 5.01 nM | ≤ 5.01 nM | ≤ 5.01 nM |
| CNC(=O)c1ccc(-n2nc(C)c3cnc(-c4cnn5cccnc45)cc32)c(OC)c1 [Example 19, 3-methoxy-N-methyl-4-(3-methyl-6-(pyrazolo[1,5-a]pyrimidin-3-yl)-1H-pyrazolo[4,3-c]pyridin-1-yl)benzamide] | > 50.1 nM | > 50.1 nM | > 50.1 nM | > 50.1 nM |
| COc1cc(N)ccc1-n1nc(C)c2cnc(-c3cnn4cccnc34)cc21 [Example 17, 3-methoxy-4-(3-methyl-6-(pyrazolo[1,5-a]pyrimidin-3-yl)-1H-pyrazolo[4,3-c]pyridin-1-yl)aniline] | > 50.1 nM | 5.01 to 50.1 nM | 5.01 to 50.1 nM | 5.01 to 50.1 nM |
| COc1cc(NS(C)(=O)=O)ccc1-n1nc(NCCN2C3CCC2COC3)c2cnc(-c3cnn4cccnc34)cc21 [Example 30, N-(4-(3-((2-(3-oxa-8-azabicyclo[3.2.1]octan-8-yl)ethyl)amino)-6-(pyrazolo[1,5-a]pyrimidin-3-yl)-1H-pyrazolo[4,3-c]pyridin-1-yl)-3-methoxyphenyl)methanesulfonamide] | 5.01 to 50.1 nM | ≤ 5.01 nM | ≤ 5.01 nM | ≤ 5.01 nM |
| COc1cc(NS(=O)(=O)C2CC2)ccc1-n1nc(NCCN(C)C)c2cnc(-c3cnn4cccnc34)cc21 [Example 32, N-(4-(3-((2-(dimethylamino)ethyl)amino)-6-(pyrazolo[1,5-a]pyrimidin-3-yl)-1H-pyrazolo[4,3-c]pyridin-1-yl)-3-methoxyphenyl)cyclopropanesulfonamide] | 5.01 to 50.1 nM | 5.01 to 50.1 nM | 5.01 to 50.1 nM | ≤ 5.01 nM |
| COc1cc(NS(C)(=O)=O)ccc1-n1nc(NCCN2CCOCC2)c2cnc(-c3cnc4cccnn34)cc21 [Example 76, N-(4-(6-(imidazo[1,2-b]pyridazin-3-yl)-3-((2-morpholinoethyl)amino)-1H-pyrazolo[4,3-c]pyridin-1-yl)-3-methoxyphenyl)methanesulfonamide] | 5.01 to 50.1 nM | ≤ 5.01 nM | ≤ 5.01 nM | ≤ 5.01 nM |
